According to patent US20160058751A1, “COMPOSITION AND METHOD FOR TREATING CANCER” (CELLWORKS GROUP, INC., priority 2013, published 2016):
Read-outs that look alike come from different tables or passages of the source.

Legend:
[1] = test system: A549 human lung cancer cell line; test: CellTiter 96 Aqueous One relative growth assay; assay type: cell-based; conditions: for cell viability (FIG. 84) / cell viability (FIG. 90): ARQ-197 up to 3 μM; for relative growth percentage: BMS-303141 20 μM, alone or both
[2] = test system: H1650 human lung cancer cell line; test: CellTiter 96 Aqueous One relative growth assay; assay type: cell-based; conditions: for cell viability (FIG. 85) / cell viability (FIG. 91): ARQ-197 up to 3 μM; for relative growth percentage: BMS-303141 20 μM, alone or both
[3] = test system: SW48 human colon cancer cell line; test: CellTiter 96 Aqueous One relative growth assay; assay type: cell-based; conditions: for cell viability (FIG. 87): ARQ-197 up to 3 μM, Atorvastatin up to 40 μM
From the text: The SW48 human colon cancer cell line was procured from ATCC (American Type Culture Collection, Manassas, Va.).

[4] = multiple species; cited from earlier work
CaCo-2 = conditions: cited from earlier work
[5] = cited from earlier work
[6] = test system: HCT116 human colon cancer cell line; test: CellTiter 96 Aqueous One relative growth assay; conditions: for cell viability (FIG. 86): ARQ-197 up to 3 μM
[7] = in vivo, cited from earlier work
[8] = XALKORI 250 mg twice daily, cited from earlier work
[9] = cited from earlier work; remark: listed apart in the source
ATP citrate lyase = biological target: T1, ATP citrate lyase (Homo sapiens, UniProt P53396); conditions: competitive inhibitor, humans; cited from earlier work
T1 sequence (P53396 1-1101): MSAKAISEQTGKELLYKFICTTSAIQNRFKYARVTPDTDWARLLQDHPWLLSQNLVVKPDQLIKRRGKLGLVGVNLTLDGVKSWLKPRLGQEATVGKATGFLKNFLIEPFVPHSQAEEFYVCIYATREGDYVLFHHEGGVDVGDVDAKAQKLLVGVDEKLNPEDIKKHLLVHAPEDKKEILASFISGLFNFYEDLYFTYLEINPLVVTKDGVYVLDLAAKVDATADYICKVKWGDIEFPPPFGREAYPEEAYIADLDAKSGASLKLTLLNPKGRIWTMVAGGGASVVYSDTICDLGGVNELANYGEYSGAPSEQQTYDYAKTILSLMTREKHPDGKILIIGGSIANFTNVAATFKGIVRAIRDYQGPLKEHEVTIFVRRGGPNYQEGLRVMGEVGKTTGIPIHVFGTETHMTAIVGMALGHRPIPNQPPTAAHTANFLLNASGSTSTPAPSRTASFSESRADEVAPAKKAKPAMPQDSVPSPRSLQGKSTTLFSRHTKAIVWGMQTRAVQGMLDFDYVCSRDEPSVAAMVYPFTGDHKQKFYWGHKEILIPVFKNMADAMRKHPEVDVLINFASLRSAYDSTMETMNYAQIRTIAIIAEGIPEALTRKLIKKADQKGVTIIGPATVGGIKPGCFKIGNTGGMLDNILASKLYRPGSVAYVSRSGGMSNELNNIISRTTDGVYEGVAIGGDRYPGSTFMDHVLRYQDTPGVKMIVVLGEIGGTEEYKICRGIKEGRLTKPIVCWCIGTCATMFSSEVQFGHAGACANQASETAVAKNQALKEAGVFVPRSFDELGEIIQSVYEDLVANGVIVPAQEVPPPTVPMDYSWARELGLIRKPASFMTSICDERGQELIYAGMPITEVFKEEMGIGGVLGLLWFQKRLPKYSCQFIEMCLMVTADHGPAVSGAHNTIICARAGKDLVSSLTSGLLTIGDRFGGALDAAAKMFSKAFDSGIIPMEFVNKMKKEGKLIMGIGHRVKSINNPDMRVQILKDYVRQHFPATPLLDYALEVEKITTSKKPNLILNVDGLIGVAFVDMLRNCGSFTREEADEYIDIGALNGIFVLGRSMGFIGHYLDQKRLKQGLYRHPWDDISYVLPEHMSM

[10] = Sorafenib up to 5 μM, Atorvastatin up to 40 μM
[11] = BMS-303141 up to 20 μM, Sorafenib 3 μM and 5 μM
[12] = single 250 mg radiolabeled dose, healthy subjects
[13] = single 250 mg radiolabeled dose

Compound: O=C1NC(=O)[C@@H](c2cn3c4c(cccc24)CCC3)[C@@H]1c1c[nH]c2ccccc12 [ARQ-197, (3R,4R)-3-(5,6-dihydro-4H-pyrrolo[3,2,1-ij]quinolin-1-yl)-4-(1H-indol-3-yl)pyrrolidine-2,5-dione]
- cell viability (FIG. 84) ([1]; Atorvastatin up to 40 μM): a decrease
- cell viability (FIG. 90) ([1]; BMS-303141 up to 20 μM): minor decrease
- cell viability (FIG. 85) ([2]; Atorvastatin up to 40 μM): negligible effect
- cell viability (FIG. 91) ([2]; BMS-303141 up to 20 μM): minor decrease
- cell viability (FIG. 87) [3]: most pronounced
- oral bioavailability [4]: greater than 20%
- permeability (CaCo-2 flux data) (CaCo-2): good permeability
- mean terminal half-life (t1/2), tivantinib in plasma [5]: 11.7 h
- median time to maximal concentration (tmax), tivantinib in plasma [5]: 4 h
- cell viability (FIG. 86) ([6]; Atorvastatin up to 40 μM): small decrease

Compound: CC(C)c1c(C(=O)Nc2ccccc2)c(-c2ccccc2)c(-c2ccc(F)cc2)n1CC[C@@H](O)C[C@@H](O)CC(=O)O [Atorvastatin, (3R,5R)-7-[2-(4-fluorophenyl)-3-phenyl-4-(phenylcarbamoyl)-5-propan-2-ylpyrrol-1-yl]-3,5-dihydroxyheptanoic acid]
- cell viability (FIG. 84) ([1]; Atorvastatin up to 40 μM): a decrease
- cell viability (FIG. 71) [1, 10]: negligible decrease
- cell viability (FIG. 85) ([2]; Atorvastatin up to 40 μM): negligible effect
- cell viability (FIG. 72) [2, 10]: negligible decrease
- cell viability (FIG. 87) [3]: a decrease
- cell viability (FIG. 75) ([3]; Sorafenib up to 5 μM, Atorvastatin up to 10 μM): negligible effect
- orally administered dose recovered in urine ([7]; po): Less than 2%
- circulating inhibitory activity for HMG-CoA reductase attributed to active metabolites [7]: Approximately 70%
- systemic availability of the HMG-CoA reductase inhibitory activity [7]: approximately 30%
- cell viability (FIG. 86) ([6]; Atorvastatin up to 40 μM): small decrease
- cell viability (FIG. 73) [6, 10]: insignificant decrease

Compound: COc1ccc(-c2ccccc2)cc1NS(=O)(=O)c1cc(Cl)cc(Cl)c1O [BMS-303141, 3,5-Dichloro-2-hydroxy-N-(4-methoxy-[1,1′-biphenyl]-3-yl)-benzenesulfonamide]
- relative growth percentage ([1]; ARQ-197 3 μM, about 66 hours): about 105%
- cell viability (FIG. 90) ([1]; BMS-303141 up to 20 μM): minor decrease
- cell viability (FIG. 78) [1, 11]: negligible decrease
- relative growth percentage ([1]; Sorafenib 5 μM, about 68 hours): about 105%
- relative growth percentage ([2]; ARQ-197 3 μM, about 66 hours): about 76%
- cell viability (FIG. 91) ([2]; BMS-303141 up to 20 μM): minor decrease
- cell viability (FIG. 79) [2, 11]: minor decrease
- relative growth percentage ([2]; Sorafenib 5 μM, about 68 hours): about 76%
- cell viability (FIG. 81) [3, 11]: minimal decrease
- relative growth percentage ([3]; Sorafenib 5 μM, BMS-303141 20 μM, alone or both, about 68 hours): about 78%
- cell viability (FIG. 80) [6, 11]: a decrease
- relative growth percentage ([6]; Sorafenib 5 μM, BMS-303141 20 μM, alone or both, about 66 hours): about 54%

Compound: C[C@@H](Oc1cc(-c2cnn(C3CCNCC3)c2)cnc1N)c1c(Cl)ccc(F)c1Cl [Crizotinib, 3-[(1R)-1-(2,6-dichloro-3-fluorophenyl)ethoxy]-5-(1-piperidin-4-ylpyrazol-4-yl)pyridin-2-amine]
- patients with QTcF greater than or equal to 500 msec ([8]; 16 of 1167 patients): 1.4%
- patients with increase from baseline QTcF greater than or equal to 60 msec ([8]; 51 of 1136 patients): 4.4%
- time to steady state ([9]; 250 mg twice daily): ≤ 15 days
- reduction of AUCinf by a high-fat meal ([9]; high-fat meal): approximately 14%
- reduction of Cmax by a high-fat meal ([9]; high-fat meal): approximately 14%
- mean absolute bioavailability ([9]; single 250 mg oral dose): 43%
- mean apparent clearance (CL/F) ([9]; single 250 mg oral dose): 100 L/h
- administered dose recovered in feces [9, 12]: 63%
- administered dose recovered in urine [9, 12]: 22%
- unchanged crizotinib in feces, of administered dose [9, 13]: approximately 53%
- unchanged crizotinib in urine, of administered dose [9, 13]: ~2.3%
- mean apparent clearance (CL/F) ([9]; steady state after 250 mg twice daily): 60 L/h

Compound: O=C(O)C[C@@](O)(C[C@@H](O)CCCCCCc1ccc(Cl)cc1Cl)C(=O)O [SB-201076, (2S)-2-[(2S)-8-(2,4-dichlorophenyl)-2-hydroxyoctyl]-2-hydroxybutanedioic Acid]
- Ki (ATP citrate lyase): 1 µM
